Here are results for 1 molecule from patent publication US7267975B2, “Methods and compositions relating to insect repellents from a novel endophytic fungus” (Montana State University, priority 2002, dated 2007).

The test system of the assay is adult wheat stem sawflies (C. cinctus). Put plainly: Y-tube olfactometry insect repellency test. The conditions noted are these: for Ratio: preference of insect to non-naphthalene side (control) of Y-tube vs. naphthalene source side of tube: control acetone on paper disk, 30 insects. The format is in vivo. As for the experimental part: FIG. 1. A highly schematic drawing of the olfactory Y-tube used to measure insect behavior in the presence of various naphthalene sources. A 6.3 volt light source is placed at the base of the Y-tube as illustrated in the drawing.
In controlled, replicated experiments, both authentic naphthalene as well as M. vitigenus, were used as odor sources in Y-tube olfactometry tests (FIG. 1). […] Thirty successful trials using naphthalene test solution A (with a naphthalene release rate of 12 ng hr^−1) were completed (Table 1). Out of 30 insects, 24 responded by moving away from the naphthalene source. A second set of 30 successful trials were completed using naphthalene test solution B. Out of 30 insects, 21 were repelled by the naphthalene source. Finally, sixty successful trials were preformed using 0.0785 cm^2 fungal plugs (2-3 weeks old) of M. vitigenus as the odor source. Out of the 60 insects, 49 traveled away from the fungus and its volatiles. The results of both test concentrations of authentic naphthalene were statistically different from the acetone control test papers (Table 1). Insect behaviour in tests involving agar plugs containing M. vitigenus was also statistically different (a=0.001) from the controls (Table 1). […] Table 1. Influence of authentic naphthalene and M. vitigenus volatiles, containing mostly naphthalene, on the behavior of adult wheat stem sawflies (C. cinctus). Bioassay tests were conducted in Y-olfactory tubes.

Each structure is given as a SMILES string.

With `c1ccc2ccccc2c1` [Authentic naphthalene, naphthalene], the “Insect behaviour (orientation) in the presence of the odor source” value (many of the insects tested, Y-tube) is “more disoriented than usual”. In addition, the “Number of insects moving away from the naphthalene source” value (out of 30 insects, naphthalene test solution A (release rate 12 ng hr^-1)) came out at 24. Besides, the “Number of insects repelled by the naphthalene source” value (out of 30 insects, naphthalene test solution B) is given as 21. Also, the “Ratio: preference of insect to non-naphthalene side (control) of Y-tube vs. naphthalene source side of tube” value is, setting by setting: (test concentration (A), naphthalene release rate 12 ng hr^-1) 24/6; (test concentration (B)) 21/9.
